Data on 5 compounds can be found in patent publication US12077503B2, “Substituted cyclic amides and their use as herbicides” (FMC CORPORATION, priority 2015, dated 2024).

What all share (experiment): Test A postemergence
Common to all, as to assay type: in vivo

Assay [1] concerns blackgrass (Alopecurus myosuroides). To be noted: Alopecurus myosuroides, post-emergence, 240 h; for pest or weed control at 125 g/ha: 125 g ai/ha; for pest or weed control at 500 g/ha: 500 g ai/ha, visual injury, approx. 10 d. In a few lines: (§1)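 Compounds were formulated in a non-phytotoxic solvent mixture with surfactant and applied as a preemergence directed soil spray after seeding, or sprayed postemergence over plants 2 to 10 cm tall at the one- to two-leaf stage. Evaluation after about 10 d compared treated with untreated controls, using a scale from 0 (no effect) to 100 (complete control).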

Assay [2] deals with ragweed (common ragweed, Ambrosia elatior). To be noted: Ambrosia artemisiifolia, post-emergence, 240 h; for pest or weed control at 125 g/ha: 125 g ai/ha; for pest or weed control at 500 g/ha: 500 g ai/ha, visual injury, approx. 10 d. The essentials:
as §1

Assay [3] has as its system wheat (Triticum aestivum). To be noted: Triticum aestivum, post-emergence, 240 h; for plant injury at 125 g/ha: 125 g ai/ha; for plant injury at 500 g/ha: 500 g ai/ha, visual injury, approx. 10 d. The essentials:
as §1

The subject of a further assay is corn (Zea mays). The note with it: Zea mays, post-emergence, 240 h; for Corn plant response rating (crop injury, 0 = no effect, 100 = complete kill) at 125 g/ha / plant injury at 125 g/ha: 125 g ai/ha; for Corn plant response rating (crop injury, 0 = no effect, 100 = complete kill) at 500 g/ha: 500 g ai/ha, visual injury, approx. 10 d. The essentials:
as §1

Another assay concerns Kochia (Kochia scoparia). To be noted: Bassia scoparia, post-emergence, 240 h; for pest or weed control at 125 g/ha: 125 g ai/ha; for pest or weed control at 500 g/ha: 500 g ai/ha, visual injury, approx. 10 d. The essentials: as §1
Assay [4] deals with Galium (catchweed bedstraw, Galium aparine). The note with it: Galium, post-emergence, 240 h; for pest or weed control at 125 g/ha: 125 g ai/ha; for pest or weed control at 500 g/ha: 500 g ai/ha, visual injury, approx. 10 d. In a few lines: as §1
Where [5] appears, read: postemergence, visual injury after approximately 10 d, 0 to 100 scale (0 no effect, 100 complete control), read-out: Plant response rating, Blackgrass.
Setting [6] is: postemergence, visual injury after approximately 10 d, 0 to 100 scale (0 no effect, 100 complete control), read-out: Plant response rating, Ragweed.
Where [7] appears, read: postemergence, visual injury after approximately 10 d, 0 to 100 scale (0 no effect, 100 complete control), read-out: Plant response rating, Wheat.
Setting [8] is: postemergence, visual injury after approximately 10 d, 0 to 100 scale (0 no effect, 100 complete control).
Where [9] appears, read: postemergence, visual injury after approximately 10 d, 0 to 100 scale (0 no effect, 100 complete control), read-out: Plant response rating, Kochia.
Where [10] appears, read: postemergence, visual injury after approximately 10 d, 0 to 100 scale (0 no effect, 100 complete control), read-out: Plant response rating, Galium.
The mark [11] stands for this setting: Postemergence, 0 to 100 scale (0 no effect, 100 complete control), read-out: Plant response rating, Blackgrass.
[12] abbreviates: Postemergence, 0 to 100 scale (0 no effect, 100 complete control), read-out: Plant response rating, Ragweed.
Where [13] appears, read: Postemergence, 0 to 100 scale (0 no effect, 100 complete control), read-out: Plant response rating, Wheat.
Where [14] appears, read: Postemergence, 0 to 100 scale (0 no effect, 100 complete control).
The mark [15] stands for this setting: Postemergence, 0 to 100 scale (0 no effect, 100 complete control), read-out: Plant response rating, Kochia.
The mark [16] stands for this setting: Postemergence, 0 to 100 scale (0 no effect, 100 complete control), read-out: Plant response rating, Galium.

Molecules are shown by their SMILES. Like-named read-outs stand apart in the source and are kept apart here.

Turning to `CN1C[C@H](c2ccc3c(c2)CCC3)[C@@H](C(=O)Nc2ccccc2S(C)(=O)=O)C1=O` [Compound 744], the pest or weed control at 125 g/ha in assay [1] (setting [5]) turned out to be 20%; in assay [2] (setting [6]), 20%; in the assay on Kochia (Kochia scoparia) (setting [9]) it was 30%; in assay [4] (setting [10]) it was 30%. Besides, in assay [3] (setting [7]), the plant injury at 125 g/ha turned out to be 50%. The same compound yielded a Corn plant response rating (crop injury, 0 = no effect, 100 = complete kill) at 125 g/ha in the assay on corn (Zea mays) (setting [8]) of 40%.

`CN1C[C@H](c2ccc(C(F)(F)F)cc2)[C@@H](C(=O)Nc2ccc(F)c(F)c2F)C1=O` [Compound 745]: the pest or weed control at 125 g/ha in assay [1] (setting [5]) turned out to be 40%; in assay [2] (setting [6]) it was 40%; with Kochia (Kochia scoparia) (setting [9]), 70%; in assay [4] (setting [10]), 60%. In addition, the plant injury at 125 g/ha in assay [3] (setting [7]) was found to be 60%. Moreover, the Corn plant response rating (crop injury, 0 = no effect, 100 = complete kill) at 125 g/ha with corn (Zea mays) (setting [8]) is 90%.

For `CN1C[C@H](c2ccc(C(F)F)cc2)[C@@H](C(=O)Nc2ccccc2F)C1=O` [Compound 803], the pest or weed control at 125 g/ha amounted to 50% in assay [1] (postemergence, visual injury rating after approximately 10 d, read-out: Blackgrass plant response rating (0 to 100 scale, 0 no effect, 100 complete control)); 30% in assay [2] (postemergence, visual injury rating after approximately 10 d, read-out: Ragweed plant response rating (0 to 100 scale, 0 no effect, 100 complete control)); 70% with Kochia (Kochia scoparia) (postemergence, visual injury rating after approximately 10 d, read-out: Kochia plant response rating (0 to 100 scale, 0 no effect, 100 complete control)); 60% in assay [4] (postemergence, visual injury rating after approximately 10 d, read-out: Galium plant response rating (0 to 100 scale, 0 no effect, 100 complete control)). Also, the pest or weed control at 31 g/ha came out at 20% in assay [1] (Postemergence, 31 g ai/ha, visual injury after approx. 10 d, 0 to 100 scale, 0 no effect, 100 complete control, read-out: Plant response rating, Blackgrass); 30% in assay [2] (Postemergence, 31 g ai/ha, visual injury after approx. 10 d, 0 to 100 scale, 0 no effect, 100 complete control, read-out: Plant response rating, Ragweed); 50% in the assay with Kochia (Kochia scoparia) (Postemergence, 31 g ai/ha, visual injury after approx. 10 d, 0 to 100 scale, 0 no effect, 100 complete control, read-out: Plant response rating, Kochia); 30% in assay [4] (Postemergence, 31 g ai/ha, visual injury after approx. 10 d, 0 to 100 scale, 0 no effect, 100 complete control, read-out: Plant response rating, Galium). In addition, the plant injury at 125 g/ha in assay [3] (postemergence, visual injury rating after approximately 10 d, read-out: Wheat plant response rating (0 to 100 scale, 0 no effect, 100 complete control)) worked out at 40%; in the assay on corn (Zea mays) (postemergence, visual injury rating after approximately 10 d, read-out: Corn plant response rating (0 to 100 scale, 0 no effect, 100 complete control)), 90%. In addition, in assay [3] (Postemergence, 31 g ai/ha, visual injury after approx. 10 d, 0 to 100 scale, 0 no effect, 100 complete control, read-out: Plant response rating, Wheat), the plant injury at 31 g/ha worked out at 0%. Moreover, in the assay with corn (Zea mays) (Postemergence, 31 g ai/ha, visual injury after approx. 10 d, 0 to 100 scale, 0 no effect, 100 complete control), the Corn plant response rating (crop injury, 0 = no effect, 100 = complete kill) at 31 g/ha was 20%.

In the case of `COc1cc([C@H]2CN(C)C(=O)[C@@H]2C(=O)Nc2ccccc2SC)ccc1F` [Compound 1301], the pest or weed control at 125 g/ha stood at 0% in assay [1] (Postemergence, visual rating about 10 d after treatment, read-out: Blackgrass plant response rating (0 to 100 scale)); 0% in assay [2] (Postemergence, visual rating about 10 d after treatment, read-out: Ragweed plant response rating (0 to 100 scale)); 0% in the assay on Kochia (Kochia scoparia) (Postemergence, visual rating about 10 d after treatment, read-out: Kochia plant response rating (0 to 100 scale)); 20% in assay [4] (Postemergence, visual rating about 10 d after treatment, read-out: Galium plant response rating (0 to 100 scale)). Besides, the pest or weed control at 500 g/ha in assay [1] (setting [11]) amounted to 0%; in assay [2] (setting [12]), 0%; in the assay on Kochia (Kochia scoparia) (setting [15]) it was 50%; in assay [4] (setting [16]) it was 60%. Also, the plant injury at 125 g/ha in assay [3] (Postemergence, visual rating about 10 d after treatment, read-out: Wheat plant response rating (0 to 100 scale)) came to 0%; in the assay on corn (Zea mays) (Postemergence, visual rating about 10 d after treatment, read-out: Corn plant response rating (0 to 100 scale)), 0%. In addition, the plant injury at 500 g/ha in assay [3] (setting [13]) was 0%. The compound also yielded a Corn plant response rating (crop injury, 0 = no effect, 100 = complete kill) at 500 g/ha in the assay with corn (Zea mays) (setting [14]) of 0%.

For the compound `CC(C)c1cccc([C@H]2CN(C)C(=O)[C@@H]2C(=O)Nc2cccc(F)c2F)c1` [Compound 1388], the pest or weed control at 125 g/ha in assay [1] (Postemergence, visual injury after approx. 10 d, 0 to 100 scale, 0 no effect, 100 complete control, read-out: Plant response rating, Blackgrass) was 70%; in assay [2] (Postemergence, visual injury after approx. 10 d, 0 to 100 scale, 0 no effect, 100 complete control, read-out: Plant response rating, Ragweed), 0%; in the assay on Kochia (Kochia scoparia) (Postemergence, visual injury after approx. 10 d, 0 to 100 scale, 0 no effect, 100 complete control, read-out: Plant response rating, Kochia), 30%; in assay [4] (Postemergence, visual injury after approx. 10 d, 0 to 100 scale, 0 no effect, 100 complete control, read-out: Plant response rating, Galium), 50%. Moreover, the pest or weed control at 500 g/ha in assay [1] (setting [11]) amounted to 90%; in assay [2] (setting [12]) it was 50%; in the assay on Kochia (Kochia scoparia) (setting [15]), 50%; in assay [4] (setting [16]), 50%. Further, in assay [3] (Postemergence, visual injury after approx. 10 d, 0 to 100 scale, 0 no effect, 100 complete control, read-out: Plant response rating, Wheat), the plant injury at 125 g/ha came to 50%. The plant injury at 500 g/ha in assay [3] (setting [13]) was 60%. Also, the Corn plant response rating (crop injury, 0 = no effect, 100 = complete kill) at 125 g/ha with corn (Zea mays) (Postemergence, visual injury after approx. 10 d, 0 to 100 scale, 0 no effect, 100 complete control) is 60%. Also, the Corn plant response rating (crop injury, 0 = no effect, 100 = complete kill) at 500 g/ha with corn (Zea mays) (setting [14]) worked out at 80%.
